Assay results taken from patent US11007191B2, “Pharmaceutical compositions and dosage forms” (IGNYTA, INC., priority 2017, dated 2021).
Converted amounts (≈) assume the structure as drawn.

Tests used:
[1] = non-sink dissolution in pH 6.5 PBS with 0.5% SIF, USP Apparatus II; type: physicochemical; conditions: Example 5; 1 mg/mL in PBS pH 6.5 with 0.5% SIF, 37° C., 250 rpm
Protocol: The performance of all four coating weights was evaluated by dissolution in pH 6.5 phosphate buffered saline (PBS) containing 0.5% SIF powder.

[2] = gastric-to-intestinal (GB/IB) two-stage dissolution test; type: physicochemical; conditions: Example 5, GB stage, 75 mL 0.01M HCl, 100 mg nominal dose
Protocol: A two-stage dissolution test was also conducted on all four coating weights to determine if gastric exposure affected performance.
Gastric-to-intestinal (GB-IB) non-sink dissolution test: The formulation having a 50% theoretical coating weight was tested in a GB-IB non-sink dissolution test as described in the table below:

[3] = amorphous solubility in pH 6.5 PBS containing 0.5% SIF; type: physicochemical; conditions: phosphate buffered saline with 0.5% SIF powder, fassif; pH 6.5 PBS containing 0.5% SIF powder; read-out: approximate amorphous solubility
TrkB = TrkB (Homo sapiens, UniProt Q16620); conditions: background statement; cited from earlier work
[4] = target: anaplastic lymphoma kinase (ALK) (Homo sapiens, UniProt Q9UM73); conditions: background statement; cited from earlier work
TrkC = TrkC (Homo sapiens, UniProt Q16288); conditions: background statement; cited from earlier work
[5] = single-dose food effect study in dogs; type: in vivo, dog; conditions: formulation that did not comprise at least one polymer
Text: Such food effects can cause difficulty during human testing of drugs as the fed or fasted condition of the patient can cause exposure or bioavailability of drugs to vary widely.

[6] = solubility in solvents for fluid bed coating; type: physicochemical
Protocol: The solutions included 80/20 acetone/water, 95/5 acetone/water, 90/10 acetone/water, methyl ethyl ketone, acetone and methanol at 40° C. […] The lab temperature was monitored and ranged from 17° C. to 25° C., fluctuating with time of day during testing.

[7] = test system: various forms of cancer having at least one molecular alteration in one or more of ALK, ROS1, TrkA, TrkB and TrkC; conditions: early clinical studies, patients with alteration in ALK; cited from earlier work

Sequence of TrkB (Q16620 32-822): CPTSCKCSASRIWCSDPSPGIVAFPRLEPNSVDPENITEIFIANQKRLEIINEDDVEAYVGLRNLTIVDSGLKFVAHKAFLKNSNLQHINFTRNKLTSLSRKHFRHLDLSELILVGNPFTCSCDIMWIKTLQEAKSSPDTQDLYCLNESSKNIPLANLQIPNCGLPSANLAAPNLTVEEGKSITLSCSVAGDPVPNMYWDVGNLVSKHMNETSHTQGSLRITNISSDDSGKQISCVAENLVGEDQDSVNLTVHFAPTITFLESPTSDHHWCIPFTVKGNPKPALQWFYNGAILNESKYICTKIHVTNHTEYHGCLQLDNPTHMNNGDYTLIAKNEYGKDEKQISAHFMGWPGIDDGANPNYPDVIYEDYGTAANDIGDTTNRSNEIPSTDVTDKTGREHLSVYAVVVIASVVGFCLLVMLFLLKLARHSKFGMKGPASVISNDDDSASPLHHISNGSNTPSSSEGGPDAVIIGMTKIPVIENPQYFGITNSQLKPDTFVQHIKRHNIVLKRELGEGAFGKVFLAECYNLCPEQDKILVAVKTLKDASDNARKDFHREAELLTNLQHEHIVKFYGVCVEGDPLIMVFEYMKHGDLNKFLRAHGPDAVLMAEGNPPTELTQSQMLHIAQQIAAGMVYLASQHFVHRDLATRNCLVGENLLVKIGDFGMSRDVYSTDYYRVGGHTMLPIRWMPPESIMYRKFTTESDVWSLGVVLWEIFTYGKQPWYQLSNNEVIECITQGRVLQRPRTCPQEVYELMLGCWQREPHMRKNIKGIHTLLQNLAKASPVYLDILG
Sequence of anaplastic lymphoma kinase (ALK) (Q9UM73 19-1620): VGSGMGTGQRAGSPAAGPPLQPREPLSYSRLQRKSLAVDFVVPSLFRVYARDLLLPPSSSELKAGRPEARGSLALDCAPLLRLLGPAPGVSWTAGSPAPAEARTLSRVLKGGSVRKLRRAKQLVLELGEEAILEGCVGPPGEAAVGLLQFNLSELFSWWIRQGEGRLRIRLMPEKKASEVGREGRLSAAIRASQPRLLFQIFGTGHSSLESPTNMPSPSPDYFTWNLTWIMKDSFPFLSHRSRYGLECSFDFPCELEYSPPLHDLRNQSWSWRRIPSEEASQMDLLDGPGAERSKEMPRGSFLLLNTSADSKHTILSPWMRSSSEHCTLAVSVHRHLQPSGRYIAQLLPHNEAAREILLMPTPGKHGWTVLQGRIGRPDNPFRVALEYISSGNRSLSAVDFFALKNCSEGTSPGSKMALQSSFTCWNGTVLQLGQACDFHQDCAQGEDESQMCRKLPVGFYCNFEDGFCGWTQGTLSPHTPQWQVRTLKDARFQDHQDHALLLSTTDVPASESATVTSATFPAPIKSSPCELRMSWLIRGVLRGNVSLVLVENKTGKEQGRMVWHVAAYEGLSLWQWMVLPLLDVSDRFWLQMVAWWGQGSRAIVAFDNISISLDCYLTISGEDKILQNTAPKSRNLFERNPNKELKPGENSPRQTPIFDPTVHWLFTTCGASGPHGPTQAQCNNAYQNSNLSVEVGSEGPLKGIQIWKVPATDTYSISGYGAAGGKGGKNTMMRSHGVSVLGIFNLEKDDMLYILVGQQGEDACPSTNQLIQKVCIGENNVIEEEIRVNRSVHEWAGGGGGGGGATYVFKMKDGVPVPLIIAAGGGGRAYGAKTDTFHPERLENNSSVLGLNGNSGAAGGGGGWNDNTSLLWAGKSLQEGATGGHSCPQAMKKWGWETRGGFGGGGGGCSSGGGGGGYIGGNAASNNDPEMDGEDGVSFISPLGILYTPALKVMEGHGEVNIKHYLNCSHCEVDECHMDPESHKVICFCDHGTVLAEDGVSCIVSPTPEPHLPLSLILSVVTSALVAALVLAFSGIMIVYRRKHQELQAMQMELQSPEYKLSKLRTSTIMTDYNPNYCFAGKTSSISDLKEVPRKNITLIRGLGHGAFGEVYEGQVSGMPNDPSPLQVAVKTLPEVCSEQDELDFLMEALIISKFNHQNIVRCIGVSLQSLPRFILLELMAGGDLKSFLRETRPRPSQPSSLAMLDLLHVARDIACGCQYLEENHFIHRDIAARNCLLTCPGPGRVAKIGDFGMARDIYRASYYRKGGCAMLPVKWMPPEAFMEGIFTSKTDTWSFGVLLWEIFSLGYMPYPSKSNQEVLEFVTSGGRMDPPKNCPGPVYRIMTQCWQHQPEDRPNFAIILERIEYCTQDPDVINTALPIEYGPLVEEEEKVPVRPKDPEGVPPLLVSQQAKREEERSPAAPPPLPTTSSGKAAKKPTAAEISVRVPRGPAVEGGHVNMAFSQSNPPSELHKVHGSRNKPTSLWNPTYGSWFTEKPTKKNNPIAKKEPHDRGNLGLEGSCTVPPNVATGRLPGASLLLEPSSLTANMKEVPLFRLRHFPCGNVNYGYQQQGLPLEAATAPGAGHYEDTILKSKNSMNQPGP
Sequence of TrkC (Q16288 32-839): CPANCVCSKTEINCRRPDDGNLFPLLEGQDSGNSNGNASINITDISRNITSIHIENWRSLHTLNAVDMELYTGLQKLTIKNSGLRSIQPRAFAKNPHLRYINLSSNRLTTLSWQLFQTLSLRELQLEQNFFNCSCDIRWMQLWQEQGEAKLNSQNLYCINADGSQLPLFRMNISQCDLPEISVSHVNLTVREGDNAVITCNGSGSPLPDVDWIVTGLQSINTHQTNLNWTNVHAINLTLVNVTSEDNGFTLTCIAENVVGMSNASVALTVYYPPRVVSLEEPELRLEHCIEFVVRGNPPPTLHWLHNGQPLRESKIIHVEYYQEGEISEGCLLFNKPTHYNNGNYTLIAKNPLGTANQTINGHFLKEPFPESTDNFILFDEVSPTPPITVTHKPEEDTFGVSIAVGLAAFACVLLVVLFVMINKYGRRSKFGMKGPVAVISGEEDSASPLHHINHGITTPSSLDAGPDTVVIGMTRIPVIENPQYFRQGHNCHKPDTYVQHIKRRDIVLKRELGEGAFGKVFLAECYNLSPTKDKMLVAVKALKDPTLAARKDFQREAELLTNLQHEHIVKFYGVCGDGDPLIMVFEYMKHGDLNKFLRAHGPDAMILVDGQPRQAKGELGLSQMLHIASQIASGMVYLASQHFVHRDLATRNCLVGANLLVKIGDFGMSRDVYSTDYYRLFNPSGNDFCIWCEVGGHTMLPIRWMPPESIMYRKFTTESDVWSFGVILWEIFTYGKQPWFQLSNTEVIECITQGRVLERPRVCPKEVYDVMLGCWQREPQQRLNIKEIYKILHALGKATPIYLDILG

CN1CCN(c2ccc(C(=O)Nc3n[nH]c4ccc(Cc5cc(F)cc(F)c5)cc34)c(NC3CCOCC3)c2)CC1 [API, N-[5-(3,5-difluorobenzyl)-1H-indazol-3-yl]-4-(4-methyl-piperazin-1-yl)-2-(tetrahydro-2H-pyran-4-ylamino)-benzamide]
dose released within about 75 minutes [1]: about 15%
dose reached in the pH 2.0 media [2]: full dose

CN1CCN(c2ccc(C(=O)Nc3n[nH]c4ccc(Cc5cc(F)cc(F)c5)cc34)c(NC3CCOCC3)c2)CC1 [N-[5-(3,5-difluorobenzyl)-1H-indazol-3-yl]-4-(4-methyl-piperazin-1-yl)-2-(tetrahydro-2H-pyran-4-ylamino)-benzamide]
solubility [3]: ~1000 µg/mL (≈ 1780 µM)
inhibition of TrkB (TrkB): potent inhibitor
inhibition of ALK [4]: potent inhibitor
inhibition of TrkC (TrkC): potent inhibitor
exposure levels under fed conditions compared to fasting conditions [5]: approximately 2 fold
solubility in acetone/water solutions ([6]; 80/20, 95/5, 90/10 acetone/water, for 24 hours, lab temperature 17-25° C.): greater than mg/mL
time until completely dissolved in acetone/water solutions ([6]; approximately 170 mg per mL of solvent): ≤ 30 min
antitumor effects in patients [7]: antitumor effects
